Measurements from patent US9248149B2, “Methods for treating a neoplastic disease in a subject using inorganic selenium-containing compounds” (THE BOARD OF TRUSTEES OF THE LELAND STANFORD JUNIOR …, priority 2003, dated 2016).

Columns and labels:
[1] = tested on: LAPC-4 prostate cancer cells; assay: Apoptosis as sub-G1 fraction by FACS of PI-stained cells; format: cell-based, human; conditions: for percentage of sub-G1 cells (apoptosis): 48 hours
Description: (§1) Cell Cultures and Treatments. LAPC-4 prostate cancer cells (provided by Dr. Charles Sawyers, UCLA) were cultured in phenol red free RPMI 1640 (Life Technologies, Rockville, Md.) supplemented with 10% fetal bovine serum (Gemini Bio-Products, Woodland, Calif.) at 37° C. in a humidified atmosphere with 5% CO2.
Detection of Apoptosis. Flow cytometry analysis (FACS) analysis of propidium iodide (PI)-stained cells was used to quantify the percentage of apoptotic cells as the fraction of cells with a hypodiploid amount of DNA (Sub-G1). Cells were fixed and permeabilized with 100% ice-cold ethanol at 4° C. overnight. The cells were resuspended in 500 μl of buffer (phosphate buffered saline (PBS), 5 mM EDTA) and incubated with 200 μg/ml RNase A for 30 min at room temperature and then 50 μg/ml PI for 10 min at room temperature. The cell cycle distribution was analyzed using Facstar flow cytometry (Becton-Dickinson, San Jose, Calif.). Cleavage of Caspase-3 as a marker of caspase-mediated apoptosis was also detected by immunoblot analysis (see below).

LAPC-4 cells [2] = assay: GSH-reductase recycling assay, intracellular GSH and GSSG; format: cell-based, human; conditions: 10 μM selenite
Description: (§2) Determination of Intracellular GSH and GSSG Content. The determination of intracellular GSH and GSSG content following exposure to selenite was performed using the GSH-reductase recycling assay (Vandeputte et al., Cell Biol Toxicol, 10: 415-421 (1994)). This assay measures the reaction of GSH with 5,5′-dithiobis(2-nitrobenzoic acid) (DTNB). Briefly, cells (floating and adherent) were rinsed in cold stock buffer (143 mM sodium phosphate, 6.3 mM EDTA, pH7.4), and lysed by repeated freeze thawing in 130 μl of 10 mM HCl. Following lysis a 10 μl sample was removed and used for protein determination. Proteins were precipitated on ice for 15 min with 30 μl of 6.5% sulfosalicyclic acid and centrifuged for 15 min at 2000×g and 4° C. The supernatants were collected and stored at −80° C. until assayed. The 96-well plate assay was prepared by mixing 20 μl of sample or known GSH standard, 20 μl of stock buffer, 200 μl of reaction buffer (1 mM 5,5′-dithiobis(2-nitrobenzoic acid (DTNB) and 0.34 mM nicotinamide adenine dinucleotide phosphate (NADPH) in stock buffer), and 40 μl of GSH reductase (8.5 U/ml). The reaction was recorded kinetically at 30-sec intervals for 6 min at a wavelength of 405 nm GSSG was measured following GSH derivatization with 2-vinylpyridine and triethanolamine. GSSG was measured as described above using known GSSG standards. The concentration of GSH and GSSG was expressed as nmol/mg of protein.

LAPC-4 tumors = assay: Selenite and radiation combination therapy in mice with LAPC-4 tumors; format: in vivo
[3] = tested on: LAPC-4 prostate cancer cells; assay: MTS cell proliferation assay; format: cell-based, human; conditions: 48 hours
Description: as §1
Cell proliferation assay. Cells were seeded in 96-well plates (10,000 cells/well) and treated with selenite for 48 hours. Cell survival was assayed using the CellTiter 96 AQueous One Solution Cell Proliferation Assay (Promega, Madison, Wis.). The MTS tetrazolium solution was added directly to the wells, incubated at 37° C. for 3 hours, and then the absorbance was read at 490 nm with a 96 well plate reader (Vmax Kinetic Microplate Reader, Molecular Devices, Sunnyvale, Calif.).

LAPC-4 cells [4] = assay: Clonogenic survival assay; format: cell-based, human
Description: (§3) Clonogenic Survival Assays. In Examples 1-4 below, LAPC-4 cells were treated with or without selenite for 6 hours prior to receiving 2 Gy of ionizing radiation. In other Examples, LAPC-4 and DU 145 cells were treated with 10 μM selenite for 6 or 12 hours treatment with 2 or 5 Gy of γ-irradiation.
(§4) Following irradiation cells were trypsinized, counted, and seeded in triplicate into 60 mm dishes. At least two dilutions of cells were used for each treatment group. Plated cells were allowed to grow for 14 or 17 days before being stained with 0.25% crystal violet in 75% ethanol. Resulting colonies with greater than 50 cells were scored. The surviving fraction was calculated as the plating efficiency of treated cells divided by the plating efficiency of untreated cells. SF2 is the survival fraction of exponentially growing cells that were irradiated at the clinically relevant dose of 2 Gy. The SF2 enhancement ratio (SF2 ER) is defined here as the SF2 without treatment divided by the SF2 for cells treated with selenite.

DU 145 cells = assay: Clonogenic survival assay; format: cell-based; conditions: for SF2: normalized for killing from selenite alone, radiation alone 0.554; for surviving fraction, selenite alone: assessed at 17 days
Description: as §3, §4

[5] = tested on: DU 145 prostate cancer cells; assay: GSH-reductase recycling assay, GSH:GSSG ratio; format: cell-based; conditions: 10 μM selenite, basal level 146.4±14.0
Description: DU 145 prostate cancer cells (American Type Culture Collection, Rockville, Md.) were cultured in RPMI 1640 (+phenol red) supplemented with 10% fetal bovine serum. When the cells reached 50% confluence the media was replaced and selenite was added at the noted concentrations.
as §2, with “Briefly, cells (floating and adherent) were rinsed in cold stock buffer (143 mM sodium phosphate, 6.3 mM EDTA, pH7.4), and lysed by repeated freeze thawing in 130 μl of 10 mM HCl. Following lysis a 10 μl sample was removed and used for protein determination. Proteins were precipitated on ice for 15 min with 30 μl of 6.5% sulfosalicyclic acid and centrifuged for 15 min at 2000×g and 4° C. The supernatants were collected and stored at −80° C. until assayed.” left out

[6] = tested on: prostate cancer cells (E-CA-3); assay: GSH-reductase recycling assay, GSH:GSSG ratio; format: cell-based, human; conditions: 25 μM selenite, 48 hours
Source text: (§5) Primary prostate epithelial cell strains from normal prostate (PZ) and prostate cancer (CA) tissue were provided by Dr. Donna Peehl (Stanford University) using well established methods she has previously described (Peehl, Human prostatic epithelial cells. In: Culture of Epithelial Cells, 2nd edition, Freshney, R. I. and Freshney, M. G. (eds.), Wiley-Liss, Inc., N.Y., 171-194 (2002)). Three matched pairs of normal and cancer cell strains were available for study (E-PZ/CA-1, E-PZ/CA-2, and E-PZ/CA-3). Normal cell strains were obtained from a region of the prostate peripheral zone not involved in cancer. E-CA-1, E-CA-2, and E-CA-3 cell strains were derived from prostate carcinomas. Cells were treated at 50-70% confluence.
(§6) Determination of Intracellular GSH and GSSG Content. […] The 96-well plate assay was prepared by mixing 20 μl of sample or known GSH standard, 20 μl of stock buffer, 200 μl of reaction buffer (1 mM 5,5′-dithiobis(2-nitrobenzoic acid (DTNB) and 0.34 mM nicotinamide adenine dinucleotide phosphate (NADPH) in stock buffer), and 40 μl of GSH reductase (8.5 U/ml). The reaction was recorded kinetically at 30-sec intervals for 6 min at a wavelength of 405 nm GSSG was measured following GSH derivatization with 2-vinylpyridine and triethanolamine. GSSG was measured as described above using known GSSG standards. The concentration of GSH and GSSG was expressed as nmol/mg of protein.

[7] = tested on: normal prostate cells (E-PZ-3); assay: GSH-reductase recycling assay, GSH:GSSG ratio; format: cell-based, human; conditions: 25 μM selenite, 48 hours
Source text: as §5, §6

CCCCS(=N)(=O)CCC(N)C(=O)O (centres unmarked) [BSO, buthionine sulfoximine, reference compound]
induction of apoptosis ([1]; BSO 500 μM for 72 hrs): did not induce significant apoptosis

O=[Se](O)O [selenite, Sodium selenite]
decrease of GSH:GSSG ratio (LAPC-4 cells [2]; 6 hours): 88.3%
GSH:GSSG ratio (LAPC-4 cells [2]; 6 hours, untreated 129.4±13.6): 15.1±2.3
total GSH level (LAPC-4 cells [2]; 48 hours, basal level 52.1±5.6): 11.8 ± 2.1 nmol/mg
percentage of sub-G1 cells (apoptosis) ([1]; 10 μM selenite): 14.5%
percentage of sub-G1 cells (apoptosis) ([1]; 25 μM selenite): 26.1%
tolerability (LAPC-4 tumors; selenite treated mice): very well tolerated
weight loss (LAPC-4 tumors; selenite treated mice compared with local tumor irradiation alone): no significant weight loss
Cell proliferation ([3]; 10 μM selenite): 53.3 % of control
Cell proliferation ([3]; 25 μM selenite): 33.4 % of control
SF2 (LAPC-4 cells [4]; 10 μM selenite 6 hr pre 2 Gy γ-irradiation, normalized for killing from selenite alone, radiation alone 0.244): 0.056
SF2 ER (LAPC-4 cells [4]; 10 μM selenite 6 hr pre radiation, SF2 without treatment divided by SF2 with selenite): 4.36
surviving fraction, selenite alone (LAPC-4 cells [4]; 10 μM selenite for 6 hours, no radiation): 0.431±0.021
SF2 (DU 145 cells; 10 μM selenite 6 hr pre 2 Gy γ-irradiation): 0.343
SF2 ER (DU 145 cells; 10 μM selenite 6 hr pre radiation): 1.62
SF2 (DU 145 cells; 10 μM selenite 12 hr pre 2 Gy γ-irradiation): 0.199
SF2 ER (DU 145 cells; 10 μM selenite 12 hr pre radiation): 2.78
surviving fraction, selenite alone (DU 145 cells; 10 μM selenite for 6 hours): 0.941
surviving fraction, selenite alone (DU 145 cells; 10 μM selenite for 12 hours): 0.409
GSH:GSSG ratio ([5]; 6 hours): 57.5±13.8
GSH:GSSG ratio ([5]; 12 hours): 5.7±1.8
decrease of GSH:GSSG ratio [6]: 65.9%
decrease of GSH:GSSG ratio [7]: 41.1%
